A value given as a limit tells only on which side of the number the result lay.

The test system of the first experiment is progranulin. The experiment in a line: Progranulin induction cellular assay (ELISA of secreted mouse PGRN). The format is cell-based. The note with it: Mus musculus, BV-2, read-out: EC50 μM. In short, it runs like this:
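Secreted mouse PGRN in culture medium is measured by ELISA. Cells tested are BV-2, primary cortical neurons and primary microglia. BV-2 cells are plated a day ahead, allowed 1 h to attach, then incubated 16 h.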
(In general: ELISA stands for enzyme-linked immunosorbent assay.)
The term EC50 denotes the concentration at which the effect is half-maximal. Regarding `CC(=O)N[C@@H]1CO[C@@H](C(=O)N2CCc3ccccc3[C@@H]2c2ccc(F)cc2)C[C@@H]1N` [Compound 5427, N-((3S,4S,6R)-4-amino-6-((S)-1-(4-fluorophenyl)-1,2,3,4-tetrahydroisoquinoline-2-carbonyl)tetrahydro-2H-pyran-3-yl)acetamide], the EC50 was 0.096 µM.
As for `C=CCO[C@H]1CO[C@@H](C(=O)N2CCc3ccccc3[C@@H]2c2ccc(F)cc2)C[C@@H]1N` [Compound 5476, ((2R,4S,5R)-5-(allyloxy)-4-aminotetrahydro-2H-pyran-2-yl)((S)-1-(4-fluorophenyl)-3,4-dihydroisoquinolin-2(1H)-yl)methanone], the EC50 worked out at 0.001 µM.

Staying with this experiment, now noted: progranulin induction assay; mouse pMG, primary cortical neurons and BV-2 cell lines named, cell type not given; ELISA-based readout; read-out: EC50.
Regarding `N[C@@H]1C[C@H](C(=O)N2CCc3ccccc3[C@@H]2c2ccc(F)cc2)OC[C@@H]1F` [Compound 5250, ((2R,4R,5R)-4-amino-5-fluorotetrahydro-2H-pyran-2-yl)((S)-1-(4-fluorophenyl)-3,4-dihydroisoquinolin-2(1H)-yl)methanone], the EC50 turned out to be 0.095 µM.
Still for that read-out and setting: then `N[C@@H]1C[C@H](C(=O)N2CCc3ccccc3[C@@H]2c2ccc(F)cc2)OC[C@H]1F` [Compound 5251, ((2R,4R,5S)-4-amino-5-fluorotetrahydro-2H-pyran-2-yl)((S)-1-(4-fluorophenyl)-3,4-dihydroisoquinolin-2(1H)-yl)methanone], with 0.188 µM; and `N[C@H]1CC[C@H](C(=O)N2CCc3ccccc3[C@@H]2c2ccc(F)cc2F)OC1` [Compound 5255], with 0.03 µM; and `N[C@@H]1CCO[C@@H](C(=O)N2CCc3ccccc3[C@@H]2c2ccc(F)cc2F)C1` [Compound 5256], with 0.1 µM.
As to `N[C@H]1C[C@H](C(=O)N2CCc3ccccc3[C@@H]2c2ccc(F)cc2F)OC[C@H]1O` [Compound 5257], the EC50 stood at 0.022 µM.
For `N[C@@H]1CO[C@@H](C(=O)N2CCc3ccccc3[C@@H]2c2ccc(F)cc2F)C[C@@H]1O` [Compound 5258], the EC50 was found to be 0.062 µM.
Turning to `CO[C@H]1C[C@H](C(=O)N2CCc3ccccc3[C@@H]2c2ccc(F)cc2F)OC[C@H]1N` [Compound 5259], the EC50 came out at 0.046 µM.
In the case of `CO[C@@H]1CO[C@@H](C(=O)N2CCc3ccccc3[C@@H]2c2ccc(F)cc2F)C[C@@H]1N` [Compound 5261], the EC50 amounted to 0.079 µM.
Take `CCO[C@@H]1CO[C@@H](C(=O)N2CCc3ccccc3[C@@H]2c2ccc(F)cc2F)C[C@@H]1N` [Compound 5262]: the EC50 came to 0.044 µM.
Regarding `O=C([C@H]1C[C@@H]2NCCO[C@H]2CO1)N1CCc2ccccc2[C@@H]1c1ccc(F)cc1` [Compound 5266, ((S)-1-(4-fluorophenyl)-3,4-dihydroisoquinolin-2(1H)-yl)((4aR,7R,8aS)-octahydropyrano[3,4-b][1,4]oxazin-7-yl)methanone], the EC50 was 0.036 µM.
Regarding `CC(C)O[C@H]1CO[C@@H](C(=O)N2CCc3ccccc3[C@@H]2c2ccc(F)cc2)C[C@@H]1N` [Compound 5267, ((2R,4S,5R)-4-amino-5-isopropoxytetrahydro-2H-pyran-2-yl)((S)-1-(4-fluorophenyl)-3,4-dihydroisoquinolin-2(1H)-yl)methanone], the EC50 turned out to be 0.0001 µM.
On to `O=C([C@H]1CNCCO1)N1CCc2ccccc2[C@@H]1c1ccc(F)cc1` [Compound 5405, ((S)-1-(4-fluorophenyl)-3,4-dihydroisoquinolin-2(1H)-yl)((R)-morpholin-2-yl)methanone], for which the EC50 is 0.736 µM.
In the case of `O=C([C@@H]1CNCCO1)N1CCc2ccccc2[C@@H]1c1ccc(F)cc1` [Compound 5406, ((S)-1-(4-fluorophenyl)-3,4-dihydroisoquinolin-2(1H)-yl)((S)-morpholin-2-yl)methanone], the EC50 worked out at 0.715 µM.
On to `O=C([C@H]1OCCNC[C@H]1F)N1CCc2ccccc2[C@@H]1c1ccc(F)cc1` [Compound 5421], for which the EC50 was found to be 0.843 µM.
On to `CS[C@@H]1CO[C@@H](C(=O)N2CCc3ccccc3[C@@H]2c2ccc(F)cc2)C[C@@H]1N` [Compound 5425, ((2R,4S,5S)-4-amino-5-(methylthio)tetrahydro-2H-pyran-2-yl)((S)-1-(4-fluorophenyl)-3,4-dihydroisoquinolin-2(1H)-yl)methanone], for which the EC50 came out at 0.186 µM.
Regarding `CS(=O)(=O)[C@@H]1CO[C@@H](C(=O)N2CCc3ccccc3[C@@H]2c2ccc(F)cc2)C[C@@H]1N` [Compound 5426, ((2R,4S,5S)-4-amino-5-(methylsulfonyl)tetrahydro-2H-pyran-2-yl)((S)-1-(4-fluorophenyl)-3,4-dihydroisoquinolin-2(1H)-yl)methanone], the EC50 is 0.441 µM.
Still for that read-out and setting: for `CS(=O)(=O)N[C@@H]1CO[C@@H](C(=O)N2CCc3ccccc3[C@@H]2c2ccc(F)cc2)C[C@@H]1N` [Compound 5428, N-((3S,4S,6R)-4-amino-6-((S)-1-(4-fluorophenyl)-1,2,3,4-tetrahydroisoquinoline-2-carbonyl)tetrahydro-2H-pyran-3-yl)methanesulfonamide] the value was above 10 µM; for `O=C([C@H]1C[C@@H]2NC=N[C@@H]2CO1)N1CCc2ccccc2[C@@H]1c1ccc(F)cc1` [Compound 5430, ((S)-1-(4-fluorophenyl)-3,4-dihydroisoquinolin-2(1H)-yl)((3aS,6R,7aS)-1,3a,4,6,7,7a-hexahydropyrano[3,4-d]imidazol-6-yl)methanone], above 0.3 µM.
`CN[C@@H]1CO[C@@H](C(=O)N2CCc3ccccc3[C@@H]2c2ccc(F)cc2)C[C@@H]1O` [Compound 5431, ((S)-1-(4-fluorophenyl)-3,4-dihydroisoquinolin-2(1H)-yl)((2R,4S,5R)-4-hydroxy-5-(methylamino)tetrahydro-2H-pyran-2-yl)methanone]: the EC50 was found to be 0.029 µM.
Consider `O=C([C@H]1C[C@@H]2OCCN[C@@H]2CO1)N1CCc2ccccc2[C@@H]1c1ccc(F)cc1` [Compound 5432, ((S)-1-(4-fluorophenyl)-3,4-dihydroisoquinolin-2(1H)-yl)((4aR,7R,8aS)-hexahydro-2H,5H-pyrano[4,3-b][1,4]oxazin-7-yl)methanone], for which the EC50 amounted to 0.113 µM.
In the case of `N[C@H]1C[C@H](C(=O)N2CCc3ccccc3[C@@H]2c2ccc(F)cc2)OC[C@H]1OC(F)F` [Compound 5443, ((2R,4S,5S)-4-amino-5-(difluoromethoxy)tetrahydro-2H-pyran-2-yl)((S)-1-(4-fluorophenyl)-3,4-dihydroisoquinolin-2(1H)-yl)methanone], the EC50 is 0.151 µM.
On to `CN(C)[C@H]1C[C@H](C(=O)N2CCc3ccccc3[C@@H]2c2ccc(F)cc2)OC[C@H]1O` [Compound 5447, ((2R,4S,5S)-4-(dimethylamino)-5-hydroxytetrahydro-2H-pyran-2-yl)((S)-1-(4-fluorophenyl)-3,4-dihydroisoquinolin-2(1H)-yl)methanone], for which the EC50 amounted to 0.659 µM.
In the case of `O=C([C@H]1C[C@@H]2NCCO[C@@H]2CO1)N1CCc2ccccc2[C@@H]1c1ccc(F)cc1` [Compound 5448, ((S)-1-(4-fluorophenyl)-3,4-dihydroisoquinolin-2(1H)-yl)((4aS,7R,8aS)-octahydropyrano[3,4-b][1,4]oxazin-7-yl)methanone], the EC50 turned out to be 0.044 µM.
Consider `O=C([C@H]1C[C@@H]2NCCN[C@H]2CO1)N1CCc2ccccc2[C@@H]1c1ccc(F)cc1` [Compound 5461, ((S)-1-(4-fluorophenyl)-3,4-dihydroisoquinolin-2(1H)-yl)((4aR,7R,8aS)-octahydro-2H-pyrano[3,4-b]pyrazin-7-yl)methanone], for which the EC50 is 0.01 µM.
Take `CN1CCN[C@H]2C[C@H](C(=O)N3CCc4ccccc4[C@@H]3c3ccc(F)cc3)OC[C@@H]21` [Compound 5462, ((S)-1-(4-fluorophenyl)-3,4-dihydroisoquinolin-2(1H)-yl)((4aR,7R,8aS)-4-methyloctahydro-2H-pyrano[3,4-b]pyrazin-7-yl)methanone]: the EC50 worked out at 0.003 µM.
Consider `C[C@H]1CN[C@H]2C[C@H](C(=O)N3CCc4ccccc4[C@@H]3c3ccc(F)cc3)OC[C@@H]2O1` [Compound 5471, ((S)-1-(4-fluorophenyl)-3,4-dihydroisoquinolin-2(1H)-yl)((3S,4aR,7R,8aS)-3-methyloctahydropyrano[3,4-b][1,4]oxazin-7-yl)methanone], for which the EC50 was 0.109 µM.
In the case of `C[C@@H]1CN[C@H]2C[C@H](C(=O)N3CCc4ccccc4[C@@H]3c3ccc(F)cc3)OC[C@@H]2O1` [Compound 5472, ((S)-1-(4-fluorophenyl)-3,4-dihydroisoquinolin-2(1H)-yl)((3R,4aR,7R,8aS)-3-methyloctahydropyrano[3,4-b][1,4]oxazin-7-yl)methanone], the EC50 amounted to 0.013 µM.
For the compound `O=C([C@H]1C[C@@H]2NC[C@@H](C(F)(F)F)O[C@H]2CO1)N1CCc2ccccc2[C@@H]1c1ccc(F)cc1` [Compound 5473, ((S)-1-(4-fluorophenyl)-3,4-dihydroisoquinolin-2(1H)-yl)((3S,4aR,7R,8aS)-3-(trifluoromethyl)octahydropyrano[3,4-b][1,4]oxazin-7-yl)methanone], the EC50 is 0.621 µM.
`O=C([C@H]1C[C@@H]2NC[C@H](C(F)(F)F)O[C@H]2CO1)N1CCc2ccccc2[C@@H]1c1ccc(F)cc1` [Compound 5474, ((S)-1-(4-fluorophenyl)-3,4-dihydroisoquinolin-2(1H)-yl)((3R,4aR,7R,8aS)-3-(trifluoromethyl)octahydropyrano[3,4-b][1,4]oxazin-7-yl)methanone]: the EC50 amounted to 1.51 µM.
Regarding `N[C@H]1C[C@H](C(=O)N2CCc3ccccc3[C@@H]2c2ccc(F)cc2)OC[C@@H]1OCC(F)(F)F` [Compound 5475, ((2R,4S,5R)-4-amino-5-(2,2,2-trifluoroethoxy)tetrahydro-2H-pyran-2-yl)((S)-1-(4-fluorophenyl)-3,4-dihydroisoquinolin-2(1H)-yl)methanone], the 50% effective concentration (EC50) amounted to 0.001 µM.
On the same count and under the same terms, for `N[C@H]1CCO[C@@H](C(=O)N2CCc3ccccc3[C@@H]2c2ccc(F)cc2F)C1` [Compound 5500] the value was 0.19 µM; for `O=C([C@H]1OCCN[C@@H]1CF)N1CCc2ccccc2[C@@H]1c1ccc(F)cc1` [Compound 5501], 3.86 µM.
